Test results as given in patent publication US9060946B2, “Topical skin care formulations” (priority 2013, dated 2015).

How the values were obtained:
[1] = background; without the whiteness-preserving ingredients; cited from earlier work
skin [2] = test: Tanning of the skin after topical application; format: in vivo
From the text: The tan will appear once it reaches the skin's cellular level whether a person is in the light or in total darkness.
The tanning process will continue, in the sun, in the shade, or total darkness, regardless of the environmental conditions. […] Also, the tan can be maintained for longer periods of time by daily use of a maintenance formula containing 3 wt % CoQ10 and 3 wt % vanillin in a lime emulsion.

skin [3] = conditions: known sunless tanning ingredients; acts on dead skin cells; cited from earlier work

Row | SMILES | color behaviour in aqueous emulsion products [1] | tanning / color development continues for up to (skin [2]) | how long the tan color lasts (skin [3])
1 | COC1=C(OC)C(=O)C(C/C=C(\C)CC/C=C(\C)CC/C=C(\C)CC/C=C(\C)CC/C=C(\C)CC/C=C(\C)CC/C=C(\C)CC/C=C(\C)CC/C=C(\C)CCC=C(C)C)=C(C)C1=O [CoQ10, coenzyme Q10] | degrades the formulation into various shades of orange or brown |  | 
2 | COc1cc(C=O)ccc1O [vanillin] | quickly degrades into various shades of brown | up to 24 hours | 
3 | O=C(CO)[C@H](O)CO [erythrulose, D-erythrulose] |  |  | only a few days
